From patent US20240285784A1, “PEPTIDIC CONJUGATES OF SN38 USEFUL IN THE TREATMENT OF CANCER” (FUNDACIÓ INSTITUT DE RECERCA BIOMÈDICA (IRB BARCELONA), priority 2020, published 2024)
≈ marks a conversion by molar mass, not a printed value.

Test: Turbidimetric aqueous solubility
Type: physicochemical
Details: 37 °C, pH 7.4, aqueous buffer, kinetic from dmso stock, Turbidity aqueous solubility, Estimated precipitation range
Description: Each test compound concentration was then further diluted 1 in 100 in buffer (0.01 M phosphate buffered saline pH 7.4) so that the final DMSO concentration was 1% and the final test compound concentrations were 1, 3, 10, 30 and 100 μM. The experiment was performed at 37° C. and each concentration was incubated in 7 replicate wells. The plates were incubated for 2 hr at 37° C. before the absorbance was measured at 620 nm.

solubility at 2 h (Calculated mid-range): 11.5 µM (≈ 5.51 µg/mL)
solubility at 2 h (Lower bond): 3 µM (≈ 1.44 µg/mL)
solubility at 2 h (Upper bond): 20 µM (≈ 9.59 µg/mL)
SMILES: COC(=O)C1=C(C)NC(C)=C(C(=O)OCCN(C)Cc2ccccc2)C1c1cccc([N+](=O)[O-])c1 (stereo not drawn) [Nicardipine, reference compound]
